Series [1] is described as follows: In vitro mouse brain tissue protein binding (equilibrium dialysis). In kind it is in vitro ADME. The protocol:
Studies were performed by the DMPK Group at Shanghai ChemPartner Co., Ltd., using the equilibrium dialysis method. Values are the mean of two technical replicates.

The target of series [2] is T1, AC (Homo sapiens, UniProt Q13510).
T1 sequence (Q13510 22-395): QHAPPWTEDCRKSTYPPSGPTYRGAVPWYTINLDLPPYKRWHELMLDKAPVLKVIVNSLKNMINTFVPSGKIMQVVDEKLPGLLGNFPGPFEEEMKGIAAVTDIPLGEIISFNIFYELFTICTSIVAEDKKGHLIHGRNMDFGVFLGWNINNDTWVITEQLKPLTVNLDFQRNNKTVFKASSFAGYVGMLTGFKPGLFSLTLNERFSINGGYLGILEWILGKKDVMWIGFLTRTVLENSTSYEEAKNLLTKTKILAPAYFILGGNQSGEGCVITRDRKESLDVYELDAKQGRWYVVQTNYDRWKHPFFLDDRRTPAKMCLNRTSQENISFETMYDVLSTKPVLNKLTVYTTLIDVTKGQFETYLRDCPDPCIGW
Put plainly: Fluorogenic hAC assay on hAC-enriched lysate of HEK293 cells. It counts as biochemical. Details: expressed in transfected cells. The settings on record: hAC expressed in HEK-293 cells; read-out: hAC IC50 (μM)±SD. The gist of the method:
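Lysosome-enriched lysate (2 μg protein) from HEK293 cells stably expressing hAC, in 25 mM NaOAc pH 4.5. Pre-incubated 10 min with compound, then incubated 3 h at 37 °C with fluorogenic substrate Rbm14–12 (5 μM final, ~KM). Fluorescence (355/460 nm) read after NaIO4 development; IC50 by nonlinear regression, mean of ≥3 experiments.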

For series [3], the target named is T1, AC. Put plainly: EC50 determination in primary fibroblast cells from Krabbe's disease patients. Details: expressed in transfected cells. In kind it is cell-based. The protocol:
Cells were plated in a 6-well plate. After 24 h, cells were treated with 22m at different concentrations for 2 h. Next, cells were washed with PBS, and cell pellets were washed, collected, and stored at −80 °C. Finally, cell pellets were lysed, and hAC activity in cell lysates was analyzed using the same biochemical fluorogenic assay as described for compound IC50 determination. Using this methodology, EC50 was determined to be 0.41 ± 0.1 μM. The EC50 value is a mean of two independent experiments, each performed in two technical replicates.

As to `CC(C)CNC(=O)n1c(=O)oc2cc(C3CCN(C)CC3)ccc21` [22m, N-Isobutyl-6-(1-methyl-4-piperidyl)-2-oxo-1,3-benzoxazole-3-carboxamide], in series [1], the “Fb, u (%) brain fraction unbounded” value worked out at 0.70%. Moreover, at AC [2], the half-inhibitory concentration (IC50) is 0.166 ± 0.089 µM. Also, the concentration giving a half-maximal response (EC50) amounted to 410 ± 100 nM at AC [3] (primary fibroblast cells from Krabbe's disease patients, 2 h incubation) and 400 ± 100 nM at AC [3] (primary fibroblast cells of Krabbe's patients, Figure S1).

The term IC50 denotes the concentration that gives 50% inhibition. The EC50 is the concentration that produces a half-maximal response. A higher EC50 goes with a need for much substance.

The values are drawn from publication PMC7997574, “Lead Optimization of Benzoxazolone Carboxamides as Orally Bioavailable and CNS Penetrant Acid Ceramidase Inhibitors” (Journal of Medicinal Chemistry, 2020).
